This is an account of results in article PMC12040169 (PLOS Biology, 2025).

The data set is described as follows: in vitro. To be noted: human, hela cells, % viability.

For orientation: viability means a read-out of living cells in per cent, often relative to untreated cells. As to `COc1ccc(OCc2nnn[nH]2)cc1` [CBK270000], the viability at 28.5 h, 10 µM turned out to be 89.9%.
`CC(C)C(NS(=O)(=O)c1ccccc1)C(=O)Nc1ccccc1` (stereo not drawn) [CBK270001]: the viability at 28.5 h, 10 µM is 87.8%.
As to `Cn1nc(C(=O)NCc2ccccc2)cc1C(=O)NCc1ccccc1` [CBK270004], the viability at 28.5 h, 10 µM worked out at 92%.
In the case of `Cc1ccc(CN2C(=O)CC(Sc3ncccc3C(=O)O)C2=O)cc1` (stereo not drawn) [CBK270006] it was 91.2%; in that of `Cc1cccc(Cn2nc(C)c(NC(=O)COc3ccccc3)c2C)c1` [CBK270007], 93.5%.
In the case of `O=C(O)CC1C(=O)NCCN1Cc1ccc(F)c(F)c1` (stereo not drawn) [CBK270008], the viability at 28.5 h, 10 µM was 85.3%.
On to `COc1cccc(CNC2CC2)c1OCc1ccccc1` [CBK270009C], for which the viability at 28.5 h, 10 µM is 90.6%.
With `COc1ccc(NC(=O)CSc2cnn[nH]2)cc1OC` [CBK270010], the viability at 28.5 h, 10 µM is 102%.
Consider `Cc1cc(CNC(=O)c2ccc3c(c2)OCO3)c2ccccc2n1` [CBK270014], for which the viability at 28.5 h, 10 µM was 72.1%.
`N#Cc1ccccc1NC(=O)CSc1nc2cc(Cl)ccc2[nH]1` [CBK270019]: the viability at 28.5 h, 10 µM came out at 99.4%.
Then `O=C(Cn1cnc2ccccc2c1=O)Nc1cccc(-c2cnc3ccccc3n2)c1` [CBK270020], with 83.7%; and `CC(=O)c1c(C)nn(C(C)CC(=O)Nc2ccc(Cl)c(Cl)c2)c1C` (stereo not drawn) [CBK270021], with 87.3%; and `O=C(CSc1cnn[nH]1)Nc1ccc(F)cc1` [CBK270024], with 89.6%.
Take `COc1cc(CNCc2cccnc2)cc(Cl)c1OCc1cccs1` [CBK270026C]: the viability at 28.5 h, 10 µM is 96.2%.
For the molecule `CCOc1cc(CNCc2ccc(C(=O)O)cc2)ccc1OC` [CBK270029C], the viability at 28.5 h, 10 µM was determined as 89.7%.
In the case of `Cn1c(=O)c2[nH]c(N3CCCNCC3)nc2n(C)c1=O` [CBK270030], the viability at 28.5 h, 10 µM came out at 97%.
Then `CC(=O)Nc1cccc(C(=O)N2CCN(Cc3ccc4c(c3)OCO4)CC2)c1` [CBK270031], with 89.2%.
Then `CCOc1ccc(S(=O)(=O)N(C)CC(=O)O)cc1` [CBK270032], with 90.4%; and `Clc1ccc(OCc2nnn[nH]2)c(C2CCCCC2)c1` [CBK270035], with 103%.
As to `CCC(Oc1ccc(C)cc1)C(=O)Nc1ccc(S(N)(=O)=O)cc1` (stereo not drawn) [CBK270036], the viability at 28.5 h, 10 µM was determined as 90.5%.
Consider `COCC(C)NS(=O)(=O)c1cc(C)ccc1OC` (stereo not drawn) [CBK270037], for which the viability at 28.5 h, 10 µM turned out to be 85.6%.
For `Cc1[nH]c2ccccc2c1C(=O)C(=O)Nc1sc(C)c(C)c1C#N` [CBK270038], the viability at 28.5 h, 10 µM came out at 85.9%.
In the case of `Cc1cc(C)n2nc(NC(=O)C(C)Oc3ccccc3)nc2n1` (stereo not drawn) [CBK270039], the viability at 28.5 h, 10 µM turned out to be 89.9%.
On to `N#Cc1c(NC(=O)CCn2cnnn2)sc2c1CCC2` [CBK270041], for which the viability at 28.5 h, 10 µM was 93.5%.
On to `O=C(O)CCCn1cc(NC(=O)c2ccc(Br)o2)cn1` [CBK270042], for which the viability at 28.5 h, 10 µM came to 106%.
Then `CSc1nsc(SCC(=O)Nc2ccc3c(c2)OCO3)n1` [CBK270044], with 88.6%; and `CCOc1ccc2ccccc2c1CNCCSc1nnnn1C` [CBK270046C], with 90.6%; and `Cc1ccc2nc(CSc3ncnc4sc(C)cc34)[nH]c2c1` [CBK270047], with 97.1%.
In the case of `CCC(C)(C)C1CCc2c(sc(NC(=O)CN3CCOCC3)c2C#N)C1` (stereo not drawn) [CBK270048] it was 89.4%; in that of `O=C(O)CCCn1cc(NC(=O)c2cccc(F)c2)cn1` [CBK270051], 91.4%.
Regarding `COc1ccc(C(=O)Nc2cnn(CCCC(=O)O)c2)cc1` [CBK270052], the viability at 28.5 h, 10 µM turned out to be 89.7%.
Consider `COc1cccc(C(=O)Nc2ccc(-c3noc(-c4ccccn4)n3)cc2)c1` [CBK270055], for which the viability at 28.5 h, 10 µM was determined as 110%.
For `O=C(NCCN1CCOCC1)N(c1ccccc1)c1ccccc1` [CBK270057], the viability at 28.5 h, 10 µM was found to be 92.8%.
Take `Clc1ccc(COc2cccc(CNCc3ccccn3)c2)c(Cl)c1` [CBK270060C]: the viability at 28.5 h, 10 µM was determined as 88.8%.
In the case of `N#Cc1ccc(Cn2cc(C(=O)C(N)=O)c3ccccc32)cc1` [CBK270062] it was 84.2%; in that of `COc1nc2ccccc2nc1CCC(=O)NC(C)c1ccccc1` (stereo not drawn) [CBK270065], 100%; in that of `COc1ccc2oc(=O)c(C(=O)Nc3cccc(O)c3)cc2c1` [CBK270070], 87.3%.
For `COc1ccc(CN2CCNC(=O)C2CC(=O)O)c(OC)c1` (stereo not drawn) [CBK270072], the viability at 28.5 h, 10 µM came to 112%.
For `Cc1ccc(S(=O)(=O)c2ccccc2)cc1S(=O)(=O)NCc1ccncc1` [CBK270073], the viability at 28.5 h, 10 µM was determined as 98.4%.
Consider `Fc1ccc(CSc2nnc(-c3ccccn3)[nH]2)cc1` [CBK270074], for which the viability at 28.5 h, 10 µM worked out at 85.8%.
As for `O=C(Nc1ccccc1C(=O)NCCN1CCOCC1)c1cccs1` [CBK270077], the viability at 28.5 h, 10 µM came out at 94.4%.
Then `O=C1CC(N2CCN(CCc3ccncc3)CC2)C(=O)N1c1ccc(Cl)cc1` (stereo not drawn) [CBK270078], with 85.6%; and `O=C(O)C1CC=CCC1C(=O)NCc1ccc(N2CCCC2=O)cc1` (stereo not drawn) [CBK270081], with 79.7%; and `COc1cc(CNCc2cccnc2)ccc1OCc1cccs1` [CBK270082C], with 86.7%.
With `C=CCNC(=O)c1ccccc1NC(=O)Cc1ccc(Cl)cc1` [CBK270086], the viability at 28.5 h, 10 µM was 101%.
Turning to `O=C(O)CC1C(=O)NCCN1C1Cc2ccccc2C1` (stereo not drawn) [CBK270089], the viability at 28.5 h, 10 µM is 88.2%.
As to `O=C(NCCO)C1CCCN(S(=O)(=O)c2ccc3ccccc3c2)C1` (stereo not drawn) [CBK270090], the viability at 28.5 h, 10 µM is 83.7%.
Take `O=C(CCNS(=O)(=O)c1ccccc1)N1CCC(Cc2ccccc2)CC1` [CBK270091]: the viability at 28.5 h, 10 µM was found to be 84.9%.
In the case of `O=C(Nc1cccnc1)c1cc(S(=O)(=O)N2CCOCC2)ccc1Br` [CBK270101], the viability at 28.5 h, 10 µM is 92.4%.
As for `Cc1cc(-c2nc3ncccc3o2)ccc1NC(=O)c1ccc2c(c1)OCCO2` [CBK270104], the viability at 28.5 h, 10 µM was found to be 94.1%.
In the case of `COc1ccccc1-c1nnc(SCC(=O)N2CCN(c3ccccc3)CC2)[nH]1` [CBK270105] it was 95.6%; in that of `Cc1nnc(SCc2cc(=O)[nH]c(N3CCN(C)CC3)n2)s1` [CBK270106], 91.7%; in that of `COc1cc(CNCc2ccccn2)ccc1OCc1ccccc1C` [CBK270108C], 89.3%.
Take `CN(C)c1cccc(Oc2nc3c(c(=O)n(C)c(=O)n3C)n2C)c1` [CBK270109]: the viability at 28.5 h, 10 µM was 97.8%.
For `CCC(=O)N1CCN(c2ccccc2NC(=O)c2ccc(C#N)cc2F)CC1` [CBK270110], the viability at 28.5 h, 10 µM worked out at 81.8%.
As for `CS(=O)(=O)N(CC(=O)NC1CCCCCCC1)c1ccccc1` [CBK270112], the viability at 28.5 h, 10 µM is 96.1%.
Consider `O=C(CSc1nc2cccnc2[nH]1)Nc1cccc(F)c1` [CBK270113], for which the viability at 28.5 h, 10 µM was determined as 89.3%.
`O=C(O)CC1C(=O)NCCN1Cc1ccccc1Cl` (stereo not drawn) [CBK270114]: the viability at 28.5 h, 10 µM was found to be 93%.
For the molecule `OCCC1CNCCN1CC1CCCCC1` (stereo not drawn) [CBK270115], the viability at 28.5 h, 10 µM was found to be 97.2%.
Then `Cc1occc1C(=O)Nc1cnn(CCCC(=O)O)c1` [CBK270116], with 89.4%; and `O=C(NCCN1CCOCC1)c1ccc(NS(=O)(=O)c2ccccc2)cc1` [CBK270118], with 102%.
As to `O=C(O)CCCn1cc(NC(=O)Cc2ccccc2F)cn1` [CBK270119], the viability at 28.5 h, 10 µM was found to be 96.3%.
`Nc1nncn1C(=O)c1ccccc1SCc1ccccc1` [CBK270120]: the viability at 28.5 h, 10 µM turned out to be 88.9%.
Regarding `CC(C)C(N)c1nnc(SCc2ccccc2Cl)o1` (stereo not drawn) [CBK270121C], the viability at 28.5 h, 10 µM was determined as 92%.
As to `COc1ccc(Cl)cc1NC(=O)Cn1nc(-c2ccccc2)ccc1=O` [CBK270124], the viability at 28.5 h, 10 µM stood at 85.1%.
For `COc1ccc(CNC(=O)C2CC(=O)N(c3ccc(O)cc3)C2)cc1` (stereo not drawn) [CBK270125], the viability at 28.5 h, 10 µM turned out to be 96.8%.
For the molecule `CC(C)Cc1ccc(S(=O)(=O)Nc2ccc3[nH]c(=O)[nH]c3c2)cc1` [CBK270131], the viability at 28.5 h, 10 µM was found to be 94.3%.
For `CCC(Oc1ccc(C)cc1)C(=O)Nc1ccccc1C(=O)N1CCOCC1` (stereo not drawn) [CBK270132], the viability at 28.5 h, 10 µM came to 85.6%.
Regarding `COCCNCc1ccc(OCc2ccccc2)cc1` [CBK270133C], the viability at 28.5 h, 10 µM turned out to be 91.1%.
On to `O=C(O)c1ccc(NC(=O)c2cccc(-n3cnnc3)c2)cc1` [CBK270134], for which the viability at 28.5 h, 10 µM amounted to 104%.
In the case of `CCNCCOc1c(C)cc(C)cc1C` [CBK270137C] it was 108%; in that of `COc1ccc(CNC(=O)CCn2c(=O)oc3ccccc32)cc1` [CBK270138], 92.7%.
In the case of `Cc1cn2c3c(=O)n(C)c(=O)n(C)c3nc2n1CCN1CCOCC1` [CBK270139], the viability at 28.5 h, 10 µM turned out to be 91.7%.
Take `O=C1c2ccccc2C(=O)N1CCCc1nn2c(-c3cccnc3)nnc2s1` [CBK270140]: the viability at 28.5 h, 10 µM came to 80.2%.
For `COc1c(Cl)cc(Cl)cc1CNCc1cccnc1` [CBK270142C], the viability at 28.5 h, 10 µM worked out at 94.2%.
With `COc1ccc(CN2CCNC(=O)C2CC(=O)O)c(F)c1` (stereo not drawn) [CBK270143], the viability at 28.5 h, 10 µM is 95.6%.
For the molecule `c1ccc2c(c1)nc(N1CCNCC1)n1cnnc21` [CBK270145], the viability at 28.5 h, 10 µM was 100%.
As to `Cc1nnc2c(N3CCN(CCO)CC3)nc3ccccc3n12` [CBK270146], the viability at 28.5 h, 10 µM amounted to 83.2%.
Take `CCOc1cc(S(=O)(=O)NCc2ccncc2)ccc1Br` [CBK270147]: the viability at 28.5 h, 10 µM was 82.3%.
On to `O=C(Nc1ccccc1-c1nc2ccccc2[nH]1)c1ccncc1` [CBK270148], for which the viability at 28.5 h, 10 µM was 94.5%.
For `COc1cccc(NC(=O)CCS(=O)(=O)c2ccccc2)c1` [CBK270150], the viability at 28.5 h, 10 µM was 91.9%.
On to `CS(=O)(=O)N1CCC(C(=O)NCCN2CCOCC2)CC1` [CBK270151], for which the viability at 28.5 h, 10 µM came out at 100%.
On to `FC(F)(F)c1ccc(Oc2ccc(-c3noc(-c4ccccn4)n3)cc2)nc1` [CBK270152], for which the viability at 28.5 h, 10 µM turned out to be 90.1%.
For the molecule `Cc1cc(C)nc(NCCC(=O)O)n1` [CBK270154], the viability at 28.5 h, 10 µM was determined as 89.1%.
